The subject of series [1] is A549 cells. Nature of the series: Growth inhibition by antisense oligos, A549. In kind it is cell-based, human. As to conditions: 50 nM, 48 hour, vs cells treated with lipofectin. The protocol:
(§1) For all ex vivo oligo treatment, human A549 human […] carcinoma cells were seeded in 10 cm tissue culture dishes one day prior to oligonucleotide treatment. The cell lines were obtained from the American Type Culture Collection (ATCC) (Manassas, Va.) and were grown under the recommended culture conditions. Before the addition of the oligonucleotides, cells were washed with PBS (phosphate buffered saline). Next, lipofectin transfection reagent (GIBCO BRL Mississauga, Ontario, Calif.), at a concentration of 6.25 μg/ ml, was added to serum free OPTIMEM medium (GIBCO BRL, Rockville, Md.), which was then added to the cells. The oligonucleotides were added directly to the cells (i.e., one oligonucleotide per plate of cells). Mismatched oligonucleotides were used as controls. The same concentration of oligonucleotide (e.g., 50 nM) was used per plate of cells for each oligonucleotide tested.
(§2) In order to determine the effect of HDAC ODNs on cell growth inhibition and cell death through apoptosis, A549, T24, DuI45, HCT116 cells (ATCC, Manassas, Va.), or HMEC cells (BioWhittaker, Walkersville, Md.) were treated with HDAC ODNs as previously described.
(§3) For the cell growth inhibition analysis, human cancer or normal cells were treated with 50 nM of paired AS or MM oligos directed against human HDAC-1, HDAC-7 or HDAC-8for up to 96 hours. Cell numbers were counted every day by trypan blue exclusion. Percentage of inhibition was calculated as (100 - AS cell numbers/control cell numbers)%.

Series [2] deals with T24 cells. Nature of the series: Growth inhibition by antisense oligos, T24. In kind it is cell-based, human. As to conditions: 50 nM, 48 hour, vs cells treated with lipofectin. The method, then:
as §1, with “tested. […]” for “tested.”
as §3

The subject of another series is Du145 cells. Nature of the series: Growth inhibition by antisense oligos, Du145. In kind it is cell-based, human. The note with it: 50 nM, 48 hour, vs cells treated with lipofectin. The method, then: as §1, §2, §3
Series [3] concerns MCF-7 cells. Nature of the series: Growth inhibition by antisense oligos, MCF-7. As to conditions: 75 nM treatment for 2 days, vs cells treated with lipofectin. In kind it is cell-based, human. The method, then: [The procedure below names another cell line; the source lists this cell line under the same test.] as §1, with “tested. […]” for “tested.”
as §3

A further series has as its system H446 cells. Kind of series: Growth inhibition by antisense oligos, H446. As to conditions: 75 nM treatment for 2 days, vs cells treated with lipofectin. In kind it is cell-based, human.
For series [4], the system named is MDAmb231 cells. Nature of the series: Growth inhibition by antisense oligos, MDAmb231. As to conditions: 50 nM, 48 hour, vs cells treated with lipofectin. In kind it is cell-based, human. The method, then: [The procedure below names another cell line; the source lists this cell line under the same test.] as §1, with “tested. […]” for “tested.”
as §3

Series [5] has as its system A549 cells. Nature of the series: Apoptosis (Cell Death Detection ELISA), A549. In kind it is cell-based, human. As to conditions: 50 nM, 48 hours, over mismatch control. The protocol:
as §1, §2
(§4) For the apoptosis study, cells were analyzed using the Cell Death Detection ELISA^Plus kit (Roche Diagnostic GmBH, Mannheim, Germany) according to the manufacturer's directions. Typically, 10,000 cells were plated in 96-well tissue culture dishes for 2 hours before harvest and lysis. Each sample was analyzed in duplicate. ELISA reading was done using a MR700 plate reader (DYNEX Technology, Ashford, Middlesex, England) at 410 nm. The reference was set at 490 nm.
[…] Similarly, A549 cells were treated with 20 nM of HDAC1 AS in combination with 20 nM of each of AS inhibitors against human HDAC2 to HDAC8. After 48 hour treatment, A549 cells were harvested and analyzed for apoptosis by ELISA as described previously. Apoptosis of A549 cells by AS inhibition was compared to that of cells treated with 1 uM TSA for 16 hours. […] The control oligo UMM had no effect on induction of apoptosis.

Series [6] deals with T24 cells. Nature of the series: Apoptosis (Cell Death Detection ELISA), T24. The note with it: 50 nM, 48 hours, over mismatch control. In kind it is cell-based, human. The method, then: as §1, §2, §4
The test system of a further series is HCT116 cells. Kind of series: Apoptosis (Cell Death Detection ELISA), HCT116. In kind it is cell-based, human. The note with it: 50 nM, 48 hours, over mismatch control. The method, then:
as §1, with “tested. […]” for “tested.”
For the apoptosis study, cells were analyzed using the Cell Death Detection ELISA^Plus kit (Roche Diagnostic GmBH, Mannheim, Germany) according to the manufacturer's directions. […] Each sample was analyzed in duplicate. ELISA reading was done using a MR700 plate reader (DYNEX Technology, Ashford, Middlesex, England) at 410 nm. […]

In series [7] the test system is MCF-7 cells. Kind of series: Apoptosis (Cell Death Detection ELISA), MCF-7. In kind it is cell-based, human. The note with it: 50 nM, 48 hours, over mismatch control.
The subject of series [8] is MDAmb231 cells. Kind of series: Apoptosis (Cell Death Detection ELISA), MDAmb231. The note with it: 50 nM, 48 hours, over mismatch control. In kind it is cell-based, human.
The test system of series [9] is A549 cells. Kind of series: Inhibition of agar colony formation, A549. In kind it is cell-based, human. The note with it: 50 nM oligos for 48 hours, vs cells treated with lipofectin.
Series [10] has as its system MDAmb231 cells. Kind of series: Inhibition of agar colony formation, MDAmb231. In kind it is cell-based, human. As to conditions: 50 nM oligos for 48 hours, vs cells treated with lipofectin.
The test system of a further series is human HDAC-1 RNA. Kind of series: HDAC-1 RNA expression screen in T24 cells, Northern blot. The note with it: 100 nM, 24 hours. In kind it is cell-based. The protocol:
To identify antisense oligodeoxynucleotide (ODN) capable of inhibiting HDAC-1 expression in human cancer cells, eleven phosphorothioate ODNs containing sequences complementary to the 5′ or 3′ UTR of the human HDAC-1 gene (GenBank Accession No. U50079) were initially screened in T24 cells at 100 nM. Cells were harvested after 24 hours of treatment, and HDAC-1 RNA expression was analyzed by Northern blot analysis. […] HDAC-1 MM oligo was created as a control; compared to the antisense oligo, it has a 6-base mismatch.

“5′-GAAACGTGAGGGACTCAGCA-3′ (chemistry not given here) [HD1 AS1]”: in the series on A549 cells [1], the “Growth Inhibition A549” value was “+ (“+” means >35% inhibition of cell growth by antisense oligos (50 nM, 48 hour) compared to that of cells treated with lipofectin)”. Besides, in the series on T24 cells [2], the “Growth Inhibition T24” value is recorded as “+ (“+” means >35% inhibition of cell growth by antisense oligos (50 nM, 48 hour) compared to that of cells treated with lipofectin)”. Further, in the series with Du145 cells, the “Growth Inhibition Du145” value is reported as “+ (“+” means >35% inhibition of cell growth by antisense oligos (50 nM, 48 hour) compared to that of cells treated with lipofectin)”. Moreover, the “Growth Inhibition MCF-7” value in the series on MCF-7 cells [3] was “+ (“+” means >35% inhibition of cell growth by antisense oligos (50 nM, 48 hour) compared to that of cells treated with lipofectin)”. Moreover, in the series on H446 cells, the “Growth Inhibition H446” value is listed as “+ (“+” means >35% inhibition of cell growth by antisense oligos (50 nM, 48 hour) compared to that of cells treated with lipofectin)”. In addition, the “Growth Inhibition MDAmb 231” value in the series with MDAmb231 cells [4] is on record as “+ (“+” means >35% inhibition of cell growth by antisense oligos (50 nM, 48 hour) compared to that of cells treated with lipofectin)”. Also, the “Apoptosis A549” value in the series with A549 cells [5] is given as “+ (“+” means the induction of apoptosis at least 2 fold over mismatch control (50 nM, 48 hours))”. In addition, in the series with T24 cells [6], the “Apoptosis T24” value is listed as “+ (“+” means the induction of apoptosis at least 2 fold over mismatch control (50 nM, 48 hours))”. Further, in the series on HCT116 cells, the “Apoptosis HCT 116” value is “+ (“+” means the induction of apoptosis at least 2 fold over mismatch control (50 nM, 48 hours))”. The “Apoptosis MCF-7” value in the series with MCF-7 cells [7] is “+ (“+” means the induction of apoptosis at least 2 fold over mismatch control (50 nM, 48 hours))”. The “Apoptosis MDAmb 231” value in the series on MDAmb231 cells [8] was “+ (“+” means the induction of apoptosis at least 2 fold over mismatch control (50 nM, 48 hours))”. Further, in the series with A549 cells [9], the “inhibition of agar colony formation A549” value was “+ (“+” means >35% inhibition of agar colony formation of cells treated with 50 nM oligos for 48 hours compared to that of cells treated with lipofectin)”. Moreover, the “inhibition of agar colony formation MDAmb 231” value in the series with MDAmb231 cells [10] is “+ (“+” means >35% inhibition of agar colony formation of cells treated with 50 nM oligos for 48 hours compared to that of cells treated with lipofectin)”. Also, in the series with human HDAC-1 RNA, the “HDAC-1 RNA expression, screen” value is “antisense activity to human HDAC-1”.
